Target: PSMA (Homo sapiens, UniProt Q04609)
Assay: fluorescence-based PSMA binding assay
Conditions: read-out: PSMA binding affinity Ki

PSMA, sequence (Q04609 whole entry): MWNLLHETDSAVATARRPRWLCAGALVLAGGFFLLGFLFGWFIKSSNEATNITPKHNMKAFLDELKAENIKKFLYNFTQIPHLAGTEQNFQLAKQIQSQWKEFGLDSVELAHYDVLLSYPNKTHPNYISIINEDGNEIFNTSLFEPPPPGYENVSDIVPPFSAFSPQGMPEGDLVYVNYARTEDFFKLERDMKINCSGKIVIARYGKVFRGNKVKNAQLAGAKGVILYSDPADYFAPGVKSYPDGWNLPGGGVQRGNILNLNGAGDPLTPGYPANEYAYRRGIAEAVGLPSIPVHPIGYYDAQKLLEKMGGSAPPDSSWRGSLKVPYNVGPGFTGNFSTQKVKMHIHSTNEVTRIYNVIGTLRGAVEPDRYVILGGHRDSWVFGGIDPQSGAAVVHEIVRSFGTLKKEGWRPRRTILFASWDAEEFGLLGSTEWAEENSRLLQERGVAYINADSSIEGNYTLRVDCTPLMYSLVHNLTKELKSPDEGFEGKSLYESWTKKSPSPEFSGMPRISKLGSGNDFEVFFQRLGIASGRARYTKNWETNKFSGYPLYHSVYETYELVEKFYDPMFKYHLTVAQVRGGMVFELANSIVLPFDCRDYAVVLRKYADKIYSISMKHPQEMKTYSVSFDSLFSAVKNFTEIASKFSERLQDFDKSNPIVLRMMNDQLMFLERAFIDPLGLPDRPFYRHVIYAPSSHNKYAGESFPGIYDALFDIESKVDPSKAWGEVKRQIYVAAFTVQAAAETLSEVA

`C=Cc1c(C)c2cc3nc(c4c5[nH]c(cc6nc(cc1[nH]2)C(C)=C6CC)c(C)c5C(=O)C4)[C@H](CCC(=O)NCCCCC(NC(=O)CCCCCCC(=O)NCCCC[C@H](NC(=O)N[C@@H](CCC(=O)O)C(=O)O)C(=O)O)C(=O)O)[C@H]3C` (stereo partly shown) [YC-6] gave a Ki of 1.2 nM.

— patent publication US10232058B2, “Prostate-specific membrane antigen-targeted photosensitizers for photodynamic therapy” (THE JOHNS HOPKINS UNIVERSITY, priority 2013, dated 2019)
